For four compounds, ID50, IC50 and T/C results are on record in ChEMBL document CHEMBL1122361, “Synthesis and antineoplastic activity of 3'-azido and 3'-amino analogues of pyrimidine deoxyribonucleoside” (1983).

Activity calls are given as the source filed them. No cut-off for these calls is given here.

Assay [1] deals with L1210. The assay can be described thus: Ability to effect the replication of L1210 cells in vitro; IN-Inactive. In kind it is functional, cell-based. The note with it: Mus musculus.
The nature of assay [2]: Ability to effect the replication of S-180 cells in vitro. The conditions noted are these: Mus musculus, read-out: ID50 (the source's name). Type of assay: functional.
The test system of assay [3] is L1210. The assay can be described thus: Ability to effect the replication of L1210 cells in vitro. The conditions noted are these: Mus musculus, read-out: ID50 (the source's name). Type of assay: functional.
The subject of a further assay is Mus musculus. The assay can be described thus: Ratio of treated to that of control was determined in mice tested in vivo(on day 31). In kind it is functional.

Take `[N-]=[N+]=N[C@H]1C[C@H](n2ccc(=O)[nH]c2=O)O[C@@H]1CO`: the ID50 entry with L1210 [1] was “inactive”.

Consider `[N-]=[N+]=N[C@H]1C[C@H](n2ccc(N)nc2=O)O[C@@H]1CO`, for which, in the assay on L1210 [1], the ID50 entry was “inactive”.

Regarding `N[C@H]1C[C@H](n2ccc(=O)[nH]c2=O)O[C@@H]1CO`, the IC50 in assay [2] turned out to be 50 µM; in the assay on L1210 [3], 18 µM.

What is called T/C is the result in the treated group divided by that in the control group, in per cent. Turning to `Nc1ccn([C@H]2C[C@H](N)[C@@H](CO)O2)c(=O)n1`, the IC50 in assay [2] was determined as 4 µM; with L1210 [3], 0.7 µM. In the assay on Mus musculus, the T/C stood at 283%.
